Assay results as given in article PMC6437697 (Journal of Medicinal Chemistry, 2019).

How the values were obtained:
Assay in all cases: KINOMEscan
Type in all cases: binding
Conditions in all cases: read-out: % control activity remaining
DCAMKL1 = target: T1, DCAMKL1 (Homo sapiens, UniProt O15075)
T1 construct: purchased Eurofins DiscoverX KINOMEscan
T1 sequence (O15075 1-740): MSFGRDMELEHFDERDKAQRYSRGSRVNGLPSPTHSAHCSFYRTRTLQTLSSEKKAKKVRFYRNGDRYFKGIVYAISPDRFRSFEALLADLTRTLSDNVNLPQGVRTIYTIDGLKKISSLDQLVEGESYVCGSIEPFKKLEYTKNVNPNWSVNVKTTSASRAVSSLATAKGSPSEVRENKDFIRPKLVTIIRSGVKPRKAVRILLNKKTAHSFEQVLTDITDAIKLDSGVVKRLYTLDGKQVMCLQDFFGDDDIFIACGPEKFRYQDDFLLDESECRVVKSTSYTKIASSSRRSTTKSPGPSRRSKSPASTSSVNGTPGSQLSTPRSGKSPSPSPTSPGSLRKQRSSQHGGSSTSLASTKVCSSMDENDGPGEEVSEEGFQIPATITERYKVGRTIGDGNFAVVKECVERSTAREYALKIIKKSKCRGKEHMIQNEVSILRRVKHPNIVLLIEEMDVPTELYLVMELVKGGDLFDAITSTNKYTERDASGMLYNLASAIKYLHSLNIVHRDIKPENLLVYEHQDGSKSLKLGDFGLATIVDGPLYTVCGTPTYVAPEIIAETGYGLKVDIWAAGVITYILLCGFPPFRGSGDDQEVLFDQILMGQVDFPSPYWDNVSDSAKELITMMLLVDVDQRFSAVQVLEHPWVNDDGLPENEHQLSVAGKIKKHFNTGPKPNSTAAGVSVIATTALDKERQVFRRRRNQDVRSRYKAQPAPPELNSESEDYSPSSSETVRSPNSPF

FYN = target: T2, FYN (Homo sapiens, UniProt P06241)
T2 construct: purchased Eurofins DiscoverX KINOMEscan

S6K1 = target: T3, S6K1 (Homo sapiens, UniProt P23443)
T3 construct: purchased Eurofins DiscoverX KINOMEscan

ERN1 = target: T4, ERN1 (Homo sapiens, UniProt O75460)
T4 construct: purchased Eurofins DiscoverX KINOMEscan

MAP3K3 = target: T5, MAP3K3 (Homo sapiens, UniProt Q99759)
T5 construct: purchased Eurofins DiscoverX KINOMEscan
T5 sequence (Q99759 1-626): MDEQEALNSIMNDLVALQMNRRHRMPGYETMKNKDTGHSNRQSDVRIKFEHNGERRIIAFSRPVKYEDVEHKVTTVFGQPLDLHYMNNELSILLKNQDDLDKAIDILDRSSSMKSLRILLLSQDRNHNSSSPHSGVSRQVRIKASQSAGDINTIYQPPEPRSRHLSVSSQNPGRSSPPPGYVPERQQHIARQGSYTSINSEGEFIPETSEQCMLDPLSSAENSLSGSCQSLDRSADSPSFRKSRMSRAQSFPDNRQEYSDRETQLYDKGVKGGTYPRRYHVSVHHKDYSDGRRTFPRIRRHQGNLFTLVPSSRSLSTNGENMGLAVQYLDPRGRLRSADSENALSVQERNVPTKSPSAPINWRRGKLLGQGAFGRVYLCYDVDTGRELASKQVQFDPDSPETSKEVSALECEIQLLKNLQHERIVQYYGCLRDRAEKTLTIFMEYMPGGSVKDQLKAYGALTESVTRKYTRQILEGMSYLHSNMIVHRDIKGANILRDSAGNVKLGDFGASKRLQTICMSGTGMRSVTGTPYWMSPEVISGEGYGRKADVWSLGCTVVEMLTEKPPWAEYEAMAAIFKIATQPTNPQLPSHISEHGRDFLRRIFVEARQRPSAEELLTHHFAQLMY

LYN = target: T6, LYN (Homo sapiens, UniProt P07948)
T6 construct: purchased Eurofins DiscoverX KINOMEscan
T6 sequence (P07948 whole entry): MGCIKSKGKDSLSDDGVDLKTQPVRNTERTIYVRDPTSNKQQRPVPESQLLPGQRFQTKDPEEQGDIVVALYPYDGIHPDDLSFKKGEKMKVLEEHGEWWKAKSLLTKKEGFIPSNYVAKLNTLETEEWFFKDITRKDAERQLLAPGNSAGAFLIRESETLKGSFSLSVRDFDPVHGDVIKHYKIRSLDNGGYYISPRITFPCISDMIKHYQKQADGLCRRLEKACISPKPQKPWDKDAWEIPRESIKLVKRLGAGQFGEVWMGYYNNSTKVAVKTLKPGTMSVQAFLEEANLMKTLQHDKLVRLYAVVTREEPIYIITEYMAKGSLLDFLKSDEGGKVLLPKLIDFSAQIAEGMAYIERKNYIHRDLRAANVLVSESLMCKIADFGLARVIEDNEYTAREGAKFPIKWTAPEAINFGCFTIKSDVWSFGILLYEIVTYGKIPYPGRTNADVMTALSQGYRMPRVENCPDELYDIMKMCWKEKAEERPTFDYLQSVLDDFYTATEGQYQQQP

PIP5K1A = target: T7, PIP5K1A (Homo sapiens, UniProt Q99755)
T7 construct: purchased Eurofins DiscoverX KINOMEscan

MAP4K4 = target: T8, MAP4K4 (Homo sapiens, UniProt O95819)
T8 construct: purchased Eurofins DiscoverX KINOMEscan

HIPK3 = target: T9, HIPK3 (Homo sapiens, UniProt Q9H422)
T9 construct: purchased Eurofins DiscoverX KINOMEscan

MAP3K1 = target: T10, MAP3K1 (Homo sapiens, UniProt Q13233)
T10 construct: purchased Eurofins DiscoverX KINOMEscan

MLK3 = target: T11, MLK3 (Homo sapiens, UniProt Q16584)
T11 construct: purchased Eurofins DiscoverX KINOMEscan
T11 sequence (Q16584 whole entry): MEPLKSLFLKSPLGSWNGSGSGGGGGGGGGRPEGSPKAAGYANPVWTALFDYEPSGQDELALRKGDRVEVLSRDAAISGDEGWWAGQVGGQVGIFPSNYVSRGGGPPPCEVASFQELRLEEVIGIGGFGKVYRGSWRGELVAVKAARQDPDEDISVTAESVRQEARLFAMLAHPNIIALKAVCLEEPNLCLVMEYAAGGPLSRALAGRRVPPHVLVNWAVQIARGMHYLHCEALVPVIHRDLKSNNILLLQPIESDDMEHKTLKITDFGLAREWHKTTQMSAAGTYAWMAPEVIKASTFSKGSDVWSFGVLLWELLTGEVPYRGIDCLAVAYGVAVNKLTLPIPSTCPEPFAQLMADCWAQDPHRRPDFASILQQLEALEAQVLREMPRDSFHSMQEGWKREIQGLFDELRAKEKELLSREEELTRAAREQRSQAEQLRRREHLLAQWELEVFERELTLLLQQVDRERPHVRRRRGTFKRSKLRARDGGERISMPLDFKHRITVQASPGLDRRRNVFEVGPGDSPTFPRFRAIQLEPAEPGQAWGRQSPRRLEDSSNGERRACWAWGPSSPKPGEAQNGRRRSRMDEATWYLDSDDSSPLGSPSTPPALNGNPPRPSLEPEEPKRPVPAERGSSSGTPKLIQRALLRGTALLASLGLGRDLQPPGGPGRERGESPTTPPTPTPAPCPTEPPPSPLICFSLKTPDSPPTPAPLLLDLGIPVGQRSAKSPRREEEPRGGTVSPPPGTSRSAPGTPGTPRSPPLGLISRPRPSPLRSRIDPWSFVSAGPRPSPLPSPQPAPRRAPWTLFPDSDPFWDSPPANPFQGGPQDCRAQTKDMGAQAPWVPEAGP

WNK3 = target: T12, WNK3 (Homo sapiens, UniProt Q9BYP7)
T12 construct: purchased Eurofins DiscoverX KINOMEscan
T12 sequence (Q9BYP7 whole entry): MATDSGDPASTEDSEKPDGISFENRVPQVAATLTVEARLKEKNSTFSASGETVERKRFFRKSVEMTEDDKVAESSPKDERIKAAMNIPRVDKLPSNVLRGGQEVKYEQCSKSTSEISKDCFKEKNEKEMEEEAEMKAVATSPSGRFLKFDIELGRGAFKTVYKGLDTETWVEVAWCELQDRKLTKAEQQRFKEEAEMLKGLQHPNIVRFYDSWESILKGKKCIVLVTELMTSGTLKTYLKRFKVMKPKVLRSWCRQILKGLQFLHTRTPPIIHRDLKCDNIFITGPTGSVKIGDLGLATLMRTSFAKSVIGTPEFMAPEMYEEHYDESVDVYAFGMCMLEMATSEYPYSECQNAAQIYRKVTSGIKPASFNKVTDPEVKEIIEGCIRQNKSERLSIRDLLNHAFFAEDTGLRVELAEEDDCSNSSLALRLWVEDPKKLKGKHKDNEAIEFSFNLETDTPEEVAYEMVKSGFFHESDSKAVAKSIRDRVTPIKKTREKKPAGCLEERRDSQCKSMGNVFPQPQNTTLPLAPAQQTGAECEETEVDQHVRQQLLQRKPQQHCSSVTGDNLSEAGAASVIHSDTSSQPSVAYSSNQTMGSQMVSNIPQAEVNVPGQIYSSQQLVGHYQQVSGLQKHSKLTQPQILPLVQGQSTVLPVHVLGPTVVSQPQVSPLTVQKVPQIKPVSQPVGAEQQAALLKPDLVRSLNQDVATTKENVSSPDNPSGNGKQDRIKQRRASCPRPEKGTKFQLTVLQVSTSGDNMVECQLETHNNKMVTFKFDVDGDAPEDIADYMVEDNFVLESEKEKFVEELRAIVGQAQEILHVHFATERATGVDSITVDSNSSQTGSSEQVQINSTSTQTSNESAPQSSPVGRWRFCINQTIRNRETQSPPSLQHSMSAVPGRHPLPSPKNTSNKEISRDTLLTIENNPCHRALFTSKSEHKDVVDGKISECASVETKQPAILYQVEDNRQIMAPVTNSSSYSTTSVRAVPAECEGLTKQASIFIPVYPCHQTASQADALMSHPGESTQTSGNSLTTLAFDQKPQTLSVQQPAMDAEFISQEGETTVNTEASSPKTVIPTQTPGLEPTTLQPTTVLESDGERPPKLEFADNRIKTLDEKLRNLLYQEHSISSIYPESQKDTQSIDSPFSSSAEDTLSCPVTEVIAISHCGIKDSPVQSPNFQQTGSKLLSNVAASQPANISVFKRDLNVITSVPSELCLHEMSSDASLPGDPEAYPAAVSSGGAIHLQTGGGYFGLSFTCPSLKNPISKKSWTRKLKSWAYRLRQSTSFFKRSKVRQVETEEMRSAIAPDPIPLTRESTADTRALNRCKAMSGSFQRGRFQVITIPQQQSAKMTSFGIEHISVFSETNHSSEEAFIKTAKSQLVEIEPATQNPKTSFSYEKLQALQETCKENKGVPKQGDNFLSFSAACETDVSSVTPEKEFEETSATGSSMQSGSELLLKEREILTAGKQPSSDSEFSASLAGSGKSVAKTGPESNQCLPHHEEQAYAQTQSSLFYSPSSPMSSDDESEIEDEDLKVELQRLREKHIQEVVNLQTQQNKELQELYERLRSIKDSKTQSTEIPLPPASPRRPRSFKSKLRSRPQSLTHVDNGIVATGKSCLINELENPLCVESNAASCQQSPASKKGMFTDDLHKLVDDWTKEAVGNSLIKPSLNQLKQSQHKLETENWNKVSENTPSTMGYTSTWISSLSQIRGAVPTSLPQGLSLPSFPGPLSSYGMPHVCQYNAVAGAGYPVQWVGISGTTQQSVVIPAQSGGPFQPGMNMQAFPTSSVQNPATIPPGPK

MYLK = target: T13, MYLK (Homo sapiens, UniProt Q15746)
T13 construct: purchased Eurofins DiscoverX KINOMEscan
T13 sequence (Q15746 whole entry): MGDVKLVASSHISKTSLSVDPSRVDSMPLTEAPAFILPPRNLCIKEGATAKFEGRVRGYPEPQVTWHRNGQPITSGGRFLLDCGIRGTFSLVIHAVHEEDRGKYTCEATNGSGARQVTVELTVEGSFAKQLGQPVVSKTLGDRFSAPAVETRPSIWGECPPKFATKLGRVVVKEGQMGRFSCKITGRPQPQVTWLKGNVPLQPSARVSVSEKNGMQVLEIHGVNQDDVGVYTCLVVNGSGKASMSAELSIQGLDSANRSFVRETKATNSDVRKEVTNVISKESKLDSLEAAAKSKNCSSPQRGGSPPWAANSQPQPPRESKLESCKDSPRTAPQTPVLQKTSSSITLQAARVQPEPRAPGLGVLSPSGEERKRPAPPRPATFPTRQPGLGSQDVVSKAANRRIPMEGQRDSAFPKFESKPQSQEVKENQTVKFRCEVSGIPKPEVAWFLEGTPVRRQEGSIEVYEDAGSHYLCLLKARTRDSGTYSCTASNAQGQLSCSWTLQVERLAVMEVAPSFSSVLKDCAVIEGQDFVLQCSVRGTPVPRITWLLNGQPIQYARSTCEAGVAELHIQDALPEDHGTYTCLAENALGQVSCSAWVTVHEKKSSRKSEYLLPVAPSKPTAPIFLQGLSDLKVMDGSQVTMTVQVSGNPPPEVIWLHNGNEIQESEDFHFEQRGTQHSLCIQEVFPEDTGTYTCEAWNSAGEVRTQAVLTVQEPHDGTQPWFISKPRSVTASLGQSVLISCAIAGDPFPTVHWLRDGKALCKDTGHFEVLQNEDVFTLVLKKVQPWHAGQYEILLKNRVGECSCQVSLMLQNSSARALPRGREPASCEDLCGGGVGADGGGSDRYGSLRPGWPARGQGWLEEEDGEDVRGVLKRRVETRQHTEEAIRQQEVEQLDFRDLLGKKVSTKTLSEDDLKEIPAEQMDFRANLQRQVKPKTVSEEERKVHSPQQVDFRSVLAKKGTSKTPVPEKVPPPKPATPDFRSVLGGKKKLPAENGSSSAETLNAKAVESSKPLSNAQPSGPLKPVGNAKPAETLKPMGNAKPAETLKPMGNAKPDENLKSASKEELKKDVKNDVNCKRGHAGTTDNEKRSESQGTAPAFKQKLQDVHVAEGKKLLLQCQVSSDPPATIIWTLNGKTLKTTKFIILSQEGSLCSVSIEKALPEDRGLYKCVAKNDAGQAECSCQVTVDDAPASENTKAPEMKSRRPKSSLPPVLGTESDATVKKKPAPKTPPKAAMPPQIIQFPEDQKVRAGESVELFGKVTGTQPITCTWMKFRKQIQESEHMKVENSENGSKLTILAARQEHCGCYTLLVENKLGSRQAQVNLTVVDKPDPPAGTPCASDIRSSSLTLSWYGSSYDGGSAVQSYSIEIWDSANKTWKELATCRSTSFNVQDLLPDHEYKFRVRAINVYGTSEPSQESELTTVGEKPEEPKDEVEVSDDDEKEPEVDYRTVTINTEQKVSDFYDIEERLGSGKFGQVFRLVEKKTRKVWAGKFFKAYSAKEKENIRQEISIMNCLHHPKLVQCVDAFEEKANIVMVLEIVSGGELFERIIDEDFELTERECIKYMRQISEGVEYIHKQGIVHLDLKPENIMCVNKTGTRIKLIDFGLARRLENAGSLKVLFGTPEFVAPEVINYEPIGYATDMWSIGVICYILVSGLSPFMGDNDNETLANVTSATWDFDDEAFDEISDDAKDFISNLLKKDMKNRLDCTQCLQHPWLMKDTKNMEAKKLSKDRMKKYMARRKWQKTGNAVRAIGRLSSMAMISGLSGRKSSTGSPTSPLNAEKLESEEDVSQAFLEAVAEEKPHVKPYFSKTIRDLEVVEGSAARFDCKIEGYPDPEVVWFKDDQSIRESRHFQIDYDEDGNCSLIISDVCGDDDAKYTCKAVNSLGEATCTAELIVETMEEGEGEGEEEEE

Structure (SMILES) | remaining binding at 1 µM (DCAMKL1) [%] | remaining binding at 1 µM (FYN) [%] | remaining binding at 1 µM (S6K1) [%] | remaining binding at 1 µM (ERN1) [%] | remaining binding at 1 µM (MAP3K3) [%] | remaining binding at 1 µM (LYN) [%] | remaining binding at 1 µM (PIP5K1A) [%] | remaining binding at 1 µM (MAP4K4) [%] | remaining binding at 1 µM (HIPK3) [%] | remaining binding at 1 µM (MAP3K1) [%] | remaining binding at 1 µM (MLK3) [%] | remaining binding at 1 µM (WNK3) [%] | remaining binding at 1 µM (MYLK) [%]
CN1CCC(CNc2cc(Cl)nn3c(-c4cc5nc(Nc6ccccc6)[nH]c5cc4F)cnc23)CC1 [compound 31, 6-Chloro-3-(6-fluoro-2-(phenylamino)-1H-benzo[d]imidazol-5-yl)-N-((1-methylpiperidin-4-yl)methyl)imidazo[1,2-b]pyridazin-8-amine] | 81 | 98 | 95 | 33 | 73 | 95 | 91 | 100 | 89 | 89 | 81 | 82 | 81
O=C(CN1CCOCC1)N[C@H]1CC[C@H](Nc2cc(Cl)nn3c(-c4ccc5[nH]ncc5c4)cnc23)CC1 [compound 26] | 100 | 96 | 88 | 41 | 89 | 96 | 80 | 75 | 2.4 | 92 | 100 | 100 | 42
Clc1cc(NCC2CC2)c2ncc(-c3ccc4[nH]ncc4c3)n2n1 [compound 2, 6-Chloro-N-(cyclopropylmethyl)-3-(1H-indazol-5-yl)imidazo[1,2-b]pyridazin-8-amine] | 99 | 95 | 90 | 69 | 88 | 92 | 100 | 92 | 63 | 99 | 100 | 96 | 79
